Measured values reported in DBAASP.
Converted amounts (≈) assume the structure as drawn. “And” between values parts separate entries of the source, which are not always exact repeats. Equal values may be shown once. One block for each compound: values may come before it.

How the values were obtained:
Assay in all cases: ≥ marks a high value that may be exact or a test limit, other limits are often not marked, values filed in µg/mL are converted to µM
[1] = test system: Escherichia coli ATCC 25922
[2] = test system: Escherichia coli KCTC 1682
[3] = test system: Staphylococcus epidermidis KCTC 1917
[4] = test system: Enterococcus faecalis KCTC 2011
[5] = test system: Bacillus subtilis KCTC 3068
[6] = test system: Staphylococcus epidermidis ATCC 12228
[7] = test system: Salmonella typhimurium KCTC 1926
[8] = test system: Proteus vulgaris KCTC 2433
[9] = test system: Pseudomonas aeruginosa KCTC 1637
[10] = test system: Staphylococcus aureus KCTC 1621
Vibrio cholerae N16961 = test system: Vibrio cholerae N16961
Staphylococcus aureus = test system: Staphylococcus aureus
Klebsiella pneumoniae = test system: Klebsiella pneumoniae
[11] = test system: Staphylococcus aureus ATCC 25923
[12] = test system: Klebsiella pneumoniae ATCC 700603
[13] = test system: Staphylococcus epidermidis T6/19
[14] = test system: Stenotrophomonas maltophilia B32/1
[15] = test system: Acinetobacter baumannii NM124
[16] = test system: Staphylococcus epidermidis RP62A/1
[17] = test system: Staphylococcus epidermidis RP62A
[18] = test system: Candida albicans ATCC 90028
[19] = test system: Pseudomonas aeruginosa ATCC 27853
[20] = test system: Escherichia coli ATCC 25726
[21] = test system: Staphylococcus epidermidis T37/8
[22] = test system: Acinetobacter baumannii NM109
[23] = test system: Staphylococcus aureus 145/08
[24] = test system: Acinetobacter baumannii NM35
[25] = test system: Stenotrophomonas maltophilia B32/4
[26] = test system: Stenotrophomonas maltophilia B5/5
[27] = test system: Enterococcus faecalis ATCC 29212
[28] = test system: Acinetobacter baumannii NM75
[29] = test system: Stenotrophomonas maltophilia U8908
[30] = test system: Acinetobacter baumannii NM8
[31] = test system: Stenotrophomonas maltophilia B6/2
Escherichia coli BL21AI = test system: Escherichia coli BL21AI
[32] = test system: Micrococcus luteus DSM 1790
[33] = test system: Escherichia coli DH5alpha
[34] = test system: Staphylococcus aureus NBRC 13276
[35] = test system: Pseudomonas aeruginosa NBRC 13275
[36] = test system: Staphylococcus aureus NCTC 8325
Escherichia coli MG1655 = test system: Escherichia coli MG1655
[37] = test system: Pseudomonas aeruginosa PAO1
[38] = test system: Pseudomonas aeruginosa PA7

SMILES: CC[C@H](C)[C@@H]1NC(=O)CNC(=O)[C@@H](NC(=O)[C@H](CC(C)C)NC(=O)[C@@H](NC(=O)[C@H](CO)NC(=O)[C@@H]2CCCN2C(=O)[C@H](CC(C)C)NC(=O)[C@@H](NC(=O)[C@H](CCCCN)NC(=O)[C@H](C)NC(=O)CNC(=O)[C@@H](NC(=O)[C@H](CCCCN)NC(=O)[C@H](CC(C)C)NC(=O)[C@H](CC(C)C)NC(=O)[C@H](C)NC(=O)CNC(=O)[C@H](CC(C)C)NC(=O)[C@@H](N)Cc2ccccc2)[C@@H](C)CC)C(C)C)C(C)C)CSSC[C@@H](C(N)=O)NC(=O)[C@H](CCCCN)NC(=O)[C@H](CCCCN)NC(=O)[C@H](Cc2ccccc2)NC1=O [FLGALLKIGAKVLPSVLCGIFKKC]
MIC (Vibrio cholerae N16961): 4.5 µM (≈ 11.3 µg/mL)
MIC (Staphylococcus aureus): 4 µM (≈ 10.1 µg/mL)
MIC (Klebsiella pneumoniae): 15 µM (≈ 37.7 µg/mL)

SMILES: CC[C@H](C)[C@H](NC(=O)[C@H](C)NC(=O)[C@@H](NC(=O)[C@H](C)NC(=O)CNC(=O)[C@H](CCCCN)NC(=O)[C@@H](NC(=O)[C@H](C)NC(=O)CNC(=O)[C@H](CCCCN)NC(=O)[C@H](CC(C)C)NC(=O)[C@@H](NC(=O)[C@H](CCCCN)NC(=O)[C@H](CCCCN)NC(=O)[C@H](CC(C)C)NC(=O)[C@@H](NC(=O)[C@H](CCCCN)NC(=O)[C@H](CCCCN)NC(=O)[C@@H](NC(=O)[C@H](CCCCN)NC(=O)[C@@H]1CCCN1C(=O)[C@H](CO)NC(=O)[C@H](CC(C)C)NC(=O)[C@H](CCCCN)NC(=O)[C@@H](N)CC(C)C)[C@@H](C)O)[C@@H](C)O)C(C)C)[C@@H](C)CC)[C@@H](C)CC)C(=O)N[C@@H](C)C(=O)N[C@@H](CO)C(=O)N[C@@H](CCSC)C(=O)N[C@@H](C)C(=O)O [LKLSPKTKKTLKKVLKGAIKGAIAIASMA]
MIC [11]: 2.5 µM (≈ 7.52 µg/mL)
MIC [12]: 5 µM (≈ 15 µg/mL)
MIC [13]: 1.25 µM (≈ 3.76 µg/mL)
MIC [14]: 2.5 µM (≈ 7.52 µg/mL)
MIC [15]: 2.5 µM (≈ 7.52 µg/mL)
MIC [16]: 1.25 µM (≈ 3.76 µg/mL)
MIC [17]: 1.25 µM (≈ 3.76 µg/mL)
MIC [18]: ≥ 80 µM
MIC [19]: 10 µM (≈ 30.1 µg/mL)
MIC [20]: 2.5 µM (≈ 7.52 µg/mL)
MIC [21]: 1.25 µM (≈ 3.76 µg/mL)
MIC [22]: 5 µM (≈ 15 µg/mL)
MIC [23]: 2.5 µM (≈ 7.52 µg/mL)
MIC [24]: 2.5 µM (≈ 7.52 µg/mL)
MIC [25]: 1.25 µM (≈ 3.76 µg/mL)
MIC [26]: 2.5 µM (≈ 7.52 µg/mL)
MIC [27]: 5 µM (≈ 15 µg/mL)
MIC [28]: 2.5 µM (≈ 7.52 µg/mL)
MIC [29]: 2.5 µM (≈ 7.52 µg/mL)
MIC [30]: 2.5 µM (≈ 7.52 µg/mL)
MIC [31]: 1.25 µM (≈ 3.76 µg/mL)

SMILES: CC[C@H](C)[C@H](NC(=O)[C@H](CCCN=C(N)N)NC(=O)[C@H](CCCN=C(N)N)NC(=O)[C@@H]1CCCN1C(=O)[C@@H]1CCCN1C(=O)[C@H](Cc1cnc[nH]1)NC(=O)[C@@H]1CCCN1C(=O)[C@H](CCCN=C(N)N)NC(=O)[C@@H]1CCCN1C(=O)[C@H](CC(C)C)NC(=O)[C@H](Cc1ccc(O)cc1)NC(=O)[C@@H]1CCCN1C(=O)[C@@H]1CCCN1C(=O)[C@H](CCCCN)NC(=O)[C@H](CC(=O)O)NC(=O)[C@@H](N)C(C)C)C(=O)N[C@@H](Cc1ccc(O)cc1)C(=O)N[C@@H](CC(N)=O)C(=O)O [VDKPPYLPRPHPPRRIYN]
MIC (Escherichia coli BL21AI): 28.2 µM (≈ 62.5 µg/mL)
MIC [32]: 14.1 µM (≈ 31.3 µg/mL)

Continued, values first:

MIC [1]: 8 µM and 20 µM
MIC [2]: ≥ 32 µM
MIC [3]: 16 µM (≈ 40.1 µg/mL)
MIC [4]: 16 µM (≈ 40.1 µg/mL)
MIC [5]: 8 µM (≈ 20 µg/mL)
MIC [6]: 20 µM and 40 µM
MIC [7]: 22.6 µM (≈ 56.7 µg/mL)
MIC [8]: ≥ 45.3 µM
MIC [9]: ≥ 32 µM
MIC [10]: 22.6 µM (≈ 56.7 µg/mL)
SMILES: CC[C@H](C)[C@H](NC(=O)CN)C(=O)NCC(=O)N[C@@H](CCCCN)C(=O)N[C@@H](Cc1c[nH]c2ccccc12)C(=O)N[C@@H](CC(C)C)C(=O)N[C@@H](Cc1cnc[nH]1)C(=O)N[C@@H](CO)C(=O)N[C@@H](C)C(=O)N[C@@H](CCCCN)C(=O)N[C@@H](CCCCN)C(=O)N[C@@H](Cc1ccccc1)C(=O)NCC(=O)N[C@@H](CCCCN)C(=O)N[C@@H](C)C(=O)N[C@@H](Cc1ccccc1)C(=O)N[C@H](C(=O)NCC(=O)N[C@@H](CCC(=O)O)C(=O)N[C@H](C(=O)N[C@@H](CCSC)C(=O)N[C@@H](CC(N)=O)C(=O)N[C@@H](CO)C(=O)O)[C@@H](C)CC)C(C)C [GIGKWLHSAKKFGKAFVGEIMNS]

MIC [33]: ≥ 200 µM
MIC [34]: ≥ 400 µM
MIC [35]: ≥ 200 µM
SMILES: CC[C@H](C)[C@H](NC(=O)[C@H](CCC(=O)O)NC(=O)CNC(=O)[C@@H](NC(=O)[C@H](Cc1ccccc1)NC(=O)[C@H](C)NC(=O)[C@H](CCCCN)NC(=O)CNC(=O)[C@H](Cc1ccccc1)NC(=O)[C@H](CCCCN)NC(=O)[C@H](CCCCN)NC(=O)[C@H](C)NC(=O)[C@H](CO)NC(=O)[C@H](Cc1cnc[nH]1)NC(=O)[C@H](CC(C)C)NC(=O)[C@H](Cc1ccccc1)NC(=O)[C@H](CCCCN)NC(C)=O)C(C)C)C(=O)N[C@@H](CCSC)C(=O)N[C@@H](CC(N)=O)C(=O)N[C@@H](CO)C(N)=O [KFLHSAKKFGKAFVGEIMNS]

MIC [36]: ≥ 181 µM
MIC (Escherichia coli MG1655): 2 µM (≈ 5.18 µg/mL)
MIC [37]: 16 µM (≈ 41.4 µg/mL)
MIC [38]: 16 µM (≈ 41.4 µg/mL)
SMILES: CC[C@H](C)[C@H](NC(=O)[C@@H](N)CCCCN)C(=O)N1CCC[C@H]1C(=O)N1CCC[C@H]1C(=O)N[C@H](C(=O)N[C@H](C(=O)N[C@@H](CCCCN)C(=O)N[C@@H](CC(=O)O)C(=O)N[C@H](C(=O)N[C@@H](CC(C)C)C(=O)N[C@@H](CCCCN)C(=O)N[C@@H](CCCCN)C(=O)N[C@H](C(=O)N[C@@H](C)C(=O)N[C@@H](CCCCN)C(=O)NCC(=O)N[C@H](C(=O)N[C@@H](CC(C)C)C(=O)N[C@@H](CO)C(=O)N[C@@H](C)C(=O)N[C@H](C(=O)N[C@@H](C)C(=O)NCC(=O)N[C@@H](C)C(=O)N[C@@H](CC(C)C)C(=O)N[C@@H](CO)C(=O)O)C(C)C)C(C)C)C(C)C)[C@@H](C)O)C(C)C)C(C)C [KIPPVVKDTLKKVAKGVLSAVAGALS]
